In PMC4385830, “Group I Paks as therapeutic targets in NF2-deficient meningioma” (Oncotarget, 2015):

Assays:
[1] = system: KT21 or Ben-Men cells; assay: Immunoblot of signaling pathways; assay type: cell-based
Experimental: (§1) Protein concentration was determined, and equal amount of total proteins were separated by SDS-PAGE. […] GAPDH and β-actin were used as loading control.

[2] = system: Ben-Men cells; assay: Immunoblot of signaling pathways; assay type: cell-based
Experimental: as §1

[3] = system: KT21-MG1-Luc5D intracranial xenografts; assay: Orthotopic meningioma model, bioluminescence imaging; settings: for loss of body weight compared with control littermates: SCID mice bearing KT21
Description: Eight-week-old SCID mice were anesthetized with ketamine and their heads were stabilized in a small animal stereotaxic instrument. A midline sagittal incision was made on the cranial skin. A burr hole was drilled in the skull with coordinated 1.5 mm anterior and 1.5 mm lateral to the right from the bregma and a 5-μl Hamilton syringe loaded with cells was slowly inserted through the burr hole and ~0.5 mm downward to the skull base. The incision was closed using surgical absorbable gut suture.
Mice transplanted with meningioma cells were imaged using Xenogen IVIS Spectrum (Caliper, MA). Mice were injected intraperitoneally with Rediject D-Luciferin Ultra at 150 mg/kg under anesthetized with isofluorane. Luciferase activity was measured and all bioluminescence imaging was conducted when perk signal was reached. Once tumors were established (~3 weeks post-transplantation), mice were divided into groups for shRNA studies or drug treatments.
For drugs treatment, mice were dosed with Pak inhibitors daily for 14–21 days and tumor growth was monitored every week by BLI. Mean luminescence for each treatment groups (n = 5) was calculated as described previously.

[4] = target: T1, RSK4 (Homo sapiens, UniProt Q9UK32); assay: Kinase selectivity, Z'-LYTE; assay type: biochemical
T1 construct: purchased Invitrogen (Life Technologies) SelectScreen Z'-LYTE
Method in brief: (§2)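 Selectivity was profiled by a fluorescence-based coupled-enzyme assay in which phosphorylated and non-phosphorylated peptides differ in sensitivity to proteolytic cleavage. Recombinant kinases were used, each with an assay mixture optimized for that kinase.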

[5] = target: T2, ERBB4 (HER4) (Homo sapiens, UniProt Q15303); assay: Kinase selectivity, Z'-LYTE; assay type: biochemical
T2 construct: purchased Invitrogen (Life Technologies) SelectScreen Z'-LYTE
T2 sequence (Q15303 26-1308): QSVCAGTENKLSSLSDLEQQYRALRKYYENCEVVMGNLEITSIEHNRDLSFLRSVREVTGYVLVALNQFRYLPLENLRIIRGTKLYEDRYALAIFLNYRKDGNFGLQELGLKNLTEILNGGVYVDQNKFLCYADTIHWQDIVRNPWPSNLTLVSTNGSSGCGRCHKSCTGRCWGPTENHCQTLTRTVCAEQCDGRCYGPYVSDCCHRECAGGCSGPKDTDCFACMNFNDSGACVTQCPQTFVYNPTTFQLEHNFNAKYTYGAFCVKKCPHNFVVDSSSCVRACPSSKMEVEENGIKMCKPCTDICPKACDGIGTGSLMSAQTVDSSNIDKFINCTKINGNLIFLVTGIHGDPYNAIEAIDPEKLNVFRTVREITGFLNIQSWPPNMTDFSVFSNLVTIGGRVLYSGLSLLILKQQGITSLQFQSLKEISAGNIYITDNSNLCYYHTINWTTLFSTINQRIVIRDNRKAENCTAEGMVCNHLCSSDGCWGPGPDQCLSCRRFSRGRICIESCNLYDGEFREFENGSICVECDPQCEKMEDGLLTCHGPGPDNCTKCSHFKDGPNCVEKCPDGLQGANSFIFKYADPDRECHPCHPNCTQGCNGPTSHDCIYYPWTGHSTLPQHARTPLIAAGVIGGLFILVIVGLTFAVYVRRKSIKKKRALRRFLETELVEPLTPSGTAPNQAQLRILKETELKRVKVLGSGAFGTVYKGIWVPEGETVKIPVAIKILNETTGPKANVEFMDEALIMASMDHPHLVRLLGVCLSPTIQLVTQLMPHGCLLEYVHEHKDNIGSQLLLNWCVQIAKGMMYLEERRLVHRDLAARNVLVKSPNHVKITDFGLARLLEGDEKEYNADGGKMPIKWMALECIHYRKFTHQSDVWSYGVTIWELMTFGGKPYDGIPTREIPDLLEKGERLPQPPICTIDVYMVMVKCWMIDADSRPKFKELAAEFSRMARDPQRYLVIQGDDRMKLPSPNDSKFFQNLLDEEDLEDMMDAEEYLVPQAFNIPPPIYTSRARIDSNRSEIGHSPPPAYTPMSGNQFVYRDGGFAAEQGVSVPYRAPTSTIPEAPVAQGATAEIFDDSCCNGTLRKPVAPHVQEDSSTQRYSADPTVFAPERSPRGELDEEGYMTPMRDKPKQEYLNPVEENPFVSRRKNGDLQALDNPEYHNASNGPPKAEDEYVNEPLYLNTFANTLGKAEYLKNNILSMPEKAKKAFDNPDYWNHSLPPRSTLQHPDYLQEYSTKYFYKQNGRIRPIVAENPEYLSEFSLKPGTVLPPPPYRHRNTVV
Method in brief: as §2

[6] = target: T3, RSK3 (Homo sapiens, UniProt Q15349); assay: Kinase selectivity, Z'-LYTE; assay type: biochemical
T3 construct: purchased Invitrogen (Life Technologies) SelectScreen Z'-LYTE
Method in brief: as §2

[7] = target: T4, FLT3 (Homo sapiens, UniProt P36888); assay: Kinase selectivity, Z'-LYTE; assay type: biochemical
T4 construct: purchased Invitrogen (Life Technologies) SelectScreen Z'-LYTE
T4 sequence (P36888 27-993): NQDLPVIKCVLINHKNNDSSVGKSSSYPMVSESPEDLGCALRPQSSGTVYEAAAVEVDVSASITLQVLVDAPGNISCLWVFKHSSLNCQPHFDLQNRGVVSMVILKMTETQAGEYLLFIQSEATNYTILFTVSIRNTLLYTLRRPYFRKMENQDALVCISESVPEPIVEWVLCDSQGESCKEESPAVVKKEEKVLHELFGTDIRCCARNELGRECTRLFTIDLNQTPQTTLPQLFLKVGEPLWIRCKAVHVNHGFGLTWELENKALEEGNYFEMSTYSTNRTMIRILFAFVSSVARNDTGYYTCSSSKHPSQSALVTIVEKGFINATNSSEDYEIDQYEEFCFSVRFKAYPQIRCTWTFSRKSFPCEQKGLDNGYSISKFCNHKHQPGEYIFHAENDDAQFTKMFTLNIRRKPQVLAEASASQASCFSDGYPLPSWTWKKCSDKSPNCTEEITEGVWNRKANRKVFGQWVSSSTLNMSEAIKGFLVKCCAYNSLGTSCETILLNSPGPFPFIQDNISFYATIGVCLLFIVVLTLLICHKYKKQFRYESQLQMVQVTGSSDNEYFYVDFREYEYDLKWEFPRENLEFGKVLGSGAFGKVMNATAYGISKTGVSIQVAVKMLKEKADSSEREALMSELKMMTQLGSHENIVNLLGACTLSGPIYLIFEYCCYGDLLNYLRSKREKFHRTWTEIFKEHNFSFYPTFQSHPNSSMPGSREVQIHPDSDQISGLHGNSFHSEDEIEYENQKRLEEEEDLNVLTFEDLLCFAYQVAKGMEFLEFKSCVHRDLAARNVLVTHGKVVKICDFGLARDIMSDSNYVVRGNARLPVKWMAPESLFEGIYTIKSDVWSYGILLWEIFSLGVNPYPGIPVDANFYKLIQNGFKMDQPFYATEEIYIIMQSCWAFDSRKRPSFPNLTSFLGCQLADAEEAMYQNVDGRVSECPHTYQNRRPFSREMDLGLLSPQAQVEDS
Method in brief: as §2

[8] = target: T5, CDK2/cyclin A (Homo sapiens, UniProt P24941); assay: Kinase selectivity, Z'-LYTE; assay type: biochemical
T5 construct: purchased Invitrogen (Life Technologies) SelectScreen Z'-LYTE
Method in brief: as §2

[9] = target: T6, RET (Homo sapiens, UniProt P07949); assay: Kinase selectivity, Z'-LYTE; assay type: biochemical
T6 construct: purchased Invitrogen (Life Technologies) SelectScreen Z'-LYTE
T6 sequence (P07949 29-1114): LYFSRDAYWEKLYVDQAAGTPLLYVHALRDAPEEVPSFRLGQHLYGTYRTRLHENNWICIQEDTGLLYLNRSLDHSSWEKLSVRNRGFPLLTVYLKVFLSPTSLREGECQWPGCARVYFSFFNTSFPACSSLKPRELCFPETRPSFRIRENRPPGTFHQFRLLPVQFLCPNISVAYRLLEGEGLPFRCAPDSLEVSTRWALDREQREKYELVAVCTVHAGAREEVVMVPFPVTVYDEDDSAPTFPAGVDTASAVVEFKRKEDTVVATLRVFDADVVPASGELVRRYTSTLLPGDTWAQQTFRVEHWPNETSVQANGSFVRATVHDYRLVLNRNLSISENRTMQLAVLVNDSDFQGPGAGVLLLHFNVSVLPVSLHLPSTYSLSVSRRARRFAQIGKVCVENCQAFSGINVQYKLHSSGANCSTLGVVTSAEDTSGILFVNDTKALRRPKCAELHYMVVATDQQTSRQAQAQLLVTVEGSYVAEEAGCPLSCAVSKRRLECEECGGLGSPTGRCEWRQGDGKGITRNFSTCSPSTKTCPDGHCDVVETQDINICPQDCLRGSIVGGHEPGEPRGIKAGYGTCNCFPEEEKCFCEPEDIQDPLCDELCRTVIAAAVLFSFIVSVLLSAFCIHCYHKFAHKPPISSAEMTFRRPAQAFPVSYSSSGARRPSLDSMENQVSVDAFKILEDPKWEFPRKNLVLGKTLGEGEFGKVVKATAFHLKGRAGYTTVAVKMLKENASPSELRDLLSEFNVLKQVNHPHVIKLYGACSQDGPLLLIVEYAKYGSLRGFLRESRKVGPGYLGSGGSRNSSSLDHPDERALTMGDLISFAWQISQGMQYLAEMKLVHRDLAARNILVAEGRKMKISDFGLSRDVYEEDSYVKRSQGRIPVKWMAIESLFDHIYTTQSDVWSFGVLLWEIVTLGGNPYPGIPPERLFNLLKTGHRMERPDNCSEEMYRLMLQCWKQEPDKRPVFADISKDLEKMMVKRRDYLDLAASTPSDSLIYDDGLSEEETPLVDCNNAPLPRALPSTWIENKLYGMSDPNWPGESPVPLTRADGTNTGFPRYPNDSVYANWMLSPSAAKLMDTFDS
Method in brief: as §2

[10] = system: KT21 cells; assay: Apoptosis, Annexin V positive cells by flow cytometry; assay type: cell-based; settings: 3 days, vs DMSO
Experimental: For detection of apoptosis, subconfluent cells were plated in 60-mm plate and treated with inhibitors for 3 days. Cells were collected, washed and resuspended in 1x binding buffer with Annexin V-EGFP and propidium iodide (BioVision, CA) and incubated at room temperature for 5 min in dark. Apoptosis was measured using FACS with collecting 10,000 events per sample.

[11] = target: T7, Pak1 (Homo sapiens, UniProt Q13153); assay: Pak1 inhibition in vitro; assay type: biochemical; settings: read-out: IC50 values towards Pak1
T7 sequence (Q13153 whole entry): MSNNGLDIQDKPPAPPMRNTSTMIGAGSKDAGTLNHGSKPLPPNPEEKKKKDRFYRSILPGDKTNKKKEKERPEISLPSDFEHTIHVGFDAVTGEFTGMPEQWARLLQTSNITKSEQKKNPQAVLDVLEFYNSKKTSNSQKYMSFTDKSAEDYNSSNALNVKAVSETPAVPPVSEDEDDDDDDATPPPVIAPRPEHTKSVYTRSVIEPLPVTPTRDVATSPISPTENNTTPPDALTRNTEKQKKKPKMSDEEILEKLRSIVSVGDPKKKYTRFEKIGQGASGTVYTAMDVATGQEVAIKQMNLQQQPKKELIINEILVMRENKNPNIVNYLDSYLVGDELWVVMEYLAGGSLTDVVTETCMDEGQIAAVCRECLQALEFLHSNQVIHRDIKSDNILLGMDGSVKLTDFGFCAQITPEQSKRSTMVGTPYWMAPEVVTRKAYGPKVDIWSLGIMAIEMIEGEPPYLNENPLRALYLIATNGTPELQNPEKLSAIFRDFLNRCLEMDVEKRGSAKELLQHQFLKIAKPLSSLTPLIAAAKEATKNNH

[12] = target: T8, DYRK1B (Homo sapiens, UniProt Q9Y463); assay: Kinase selectivity, Z'-LYTE; assay type: biochemical
T8 construct: purchased Invitrogen (Life Technologies) SelectScreen Z'-LYTE
Method in brief: as §2

[13] = target: T9, AMPKA1/B1/G1 (Homo sapiens, UniProt Q13131); assay: Kinase selectivity, Z'-LYTE; assay type: biochemical
T9 construct: purchased Invitrogen (Life Technologies) SelectScreen Z'-LYTE
Method in brief: as §2

[14] = target: T10, AMPKA2/B1/G1 (Homo sapiens, UniProt P54646); assay: Kinase selectivity, Z'-LYTE; assay type: biochemical
T10 construct: purchased Invitrogen (Life Technologies) SelectScreen Z'-LYTE
T10 sequence (P54646 whole entry): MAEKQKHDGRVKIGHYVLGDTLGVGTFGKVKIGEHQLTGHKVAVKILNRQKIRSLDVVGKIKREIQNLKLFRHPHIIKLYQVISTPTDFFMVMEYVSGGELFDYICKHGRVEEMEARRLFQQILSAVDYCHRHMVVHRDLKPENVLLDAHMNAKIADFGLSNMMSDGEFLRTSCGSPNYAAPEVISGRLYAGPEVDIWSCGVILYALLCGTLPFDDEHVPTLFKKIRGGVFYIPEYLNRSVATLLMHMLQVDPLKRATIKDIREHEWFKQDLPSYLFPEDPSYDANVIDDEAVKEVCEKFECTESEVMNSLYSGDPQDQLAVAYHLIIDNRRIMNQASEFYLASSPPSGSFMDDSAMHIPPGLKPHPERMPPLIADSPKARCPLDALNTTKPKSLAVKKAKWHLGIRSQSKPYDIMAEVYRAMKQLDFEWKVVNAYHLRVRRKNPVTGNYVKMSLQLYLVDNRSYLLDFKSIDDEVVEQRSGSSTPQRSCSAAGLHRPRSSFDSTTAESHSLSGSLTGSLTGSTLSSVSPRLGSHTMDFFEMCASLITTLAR
T10 sequence (Q9Y478 whole entry partner): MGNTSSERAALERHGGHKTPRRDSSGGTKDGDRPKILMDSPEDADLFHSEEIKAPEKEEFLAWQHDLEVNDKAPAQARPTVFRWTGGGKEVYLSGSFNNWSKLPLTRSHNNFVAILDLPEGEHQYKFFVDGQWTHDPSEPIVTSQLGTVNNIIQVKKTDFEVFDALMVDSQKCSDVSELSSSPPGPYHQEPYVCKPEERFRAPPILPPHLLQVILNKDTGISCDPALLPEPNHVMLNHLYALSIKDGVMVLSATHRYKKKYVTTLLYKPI
T10 sequence (P54619 whole entry partner): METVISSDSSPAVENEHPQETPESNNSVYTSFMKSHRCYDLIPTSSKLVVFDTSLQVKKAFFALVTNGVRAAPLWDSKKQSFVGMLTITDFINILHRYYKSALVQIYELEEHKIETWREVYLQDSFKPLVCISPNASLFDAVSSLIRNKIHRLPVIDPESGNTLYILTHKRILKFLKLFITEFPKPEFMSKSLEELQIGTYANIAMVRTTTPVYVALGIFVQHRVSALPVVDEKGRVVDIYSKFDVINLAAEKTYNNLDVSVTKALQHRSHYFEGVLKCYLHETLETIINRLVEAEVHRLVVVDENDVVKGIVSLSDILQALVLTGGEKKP
Method in brief: as §2

[15] = target: T11, ABL2 (Arg) (Homo sapiens, UniProt P42684); assay: Kinase selectivity, Z'-LYTE; assay type: biochemical
T11 construct: purchased Invitrogen (Life Technologies) SelectScreen Z'-LYTE
Method in brief: as §2

[16] = target: T12, NTRK1 (TRKA) (Homo sapiens, UniProt P04629); assay: Kinase selectivity, Z'-LYTE; assay type: biochemical
T12 construct: purchased Invitrogen (Life Technologies) SelectScreen Z'-LYTE
Method in brief: as §2

[17] = target: T13, CDK6/p25 (Homo sapiens, UniProt Q00535); assay: Kinase selectivity, Z'-LYTE; assay type: biochemical
T13 construct: purchased Invitrogen (Life Technologies) SelectScreen Z'-LYTE
T13 sequence (Q00535 whole entry): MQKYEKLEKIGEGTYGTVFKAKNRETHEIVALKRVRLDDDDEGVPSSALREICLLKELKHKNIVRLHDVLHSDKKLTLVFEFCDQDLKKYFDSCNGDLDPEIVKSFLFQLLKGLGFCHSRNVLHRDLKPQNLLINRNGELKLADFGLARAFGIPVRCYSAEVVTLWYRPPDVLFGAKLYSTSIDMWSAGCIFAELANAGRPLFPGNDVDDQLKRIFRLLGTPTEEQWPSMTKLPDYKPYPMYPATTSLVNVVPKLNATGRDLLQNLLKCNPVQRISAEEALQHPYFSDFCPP
T13 sequence (Q15078 99-307 partner limits assumed): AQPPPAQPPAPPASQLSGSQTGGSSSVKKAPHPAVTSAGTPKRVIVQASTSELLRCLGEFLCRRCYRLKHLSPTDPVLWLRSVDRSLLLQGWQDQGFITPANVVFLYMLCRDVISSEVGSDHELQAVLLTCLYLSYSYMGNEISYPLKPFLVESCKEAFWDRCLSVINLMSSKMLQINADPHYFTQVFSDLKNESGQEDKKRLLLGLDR
Method in brief: as §2

[18] = target: T7, Pak1; assay: Kinase selectivity, Z'-LYTE; assay type: biochemical
Method in brief: as §2

[19] = target: T14, AKT2 (PKB beta) (Homo sapiens, UniProt P31751); assay: Kinase selectivity, Z'-LYTE; assay type: biochemical
T14 construct: purchased Invitrogen (Life Technologies) SelectScreen Z'-LYTE
Method in brief: as §2

[20] = system: KT21 cells; assay: Immunoblot of signaling pathways; assay type: cell-based
Experimental: Protein concentration was determined, and equal amount of total proteins were separated by SDS-PAGE. Antibodies used included those for Pak1 (2602), Pak2 (2608), Pak3 (2609), Pak4 (3242), phospho-Pak4-6 (3241), Mek1 (9122), Erk (9102), phospho-Erk1/2 (pThr202/pTyr204; 9101), Akt (9272), phospho-Akt (pThr308; 9275), S6 (2217), phospho-S6 (pSer235/pSer236; 4857), phospho-β-Catenin (pSer675; 4176), and cyclin D1 (2978) from Cell Signaling Technology; β-Catenin (610154) from BD Transduction Laboratories; and phospho-Pak (Ser141; 44940G) and phospho-Mek (Ser298; 44460G) from Invitrogen. GAPDH and β-actin were used as loading control.

[21] = inhibitors at IC50 concentration

% inhibition of activity [5] [%] | % inhibition of activity [7] [%] | SMILES | phosphorylation of Pak and Mek1 (at Ser298) [1, 21] | basal level (expression) of β-catenin [2] | % inhibition of activity [8] [%] | % inhibition of activity [9] [%] | number of apoptotic cells [10] | % inhibition of activity [12] [%] | % inhibition of activity [13] [%] | % inhibition of activity [14] [%] | % inhibition of activity [15] [%] | % inhibition of activity [16] [%] | % inhibition of activity [17] [%] | % inhibition of activity [18] [%] | % inhibition of activity [19] [%] | further results
0 | 10 | CCn1c(=O)c(-c2ccc(-c3cncc(C)n3)cc2Cl)cc2cnc(NCCC3CCN(C)CC3)nc21 [Frax1036] | nearly abolished | induction | −14 | 8 | substantial increase | – | – | – | – | – | – | – | – | loss of body weight compared with control littermates ([3]; Frax597 90 mg/kg/day, Frax1036 30 mg/kg/day, oral gavage): not seen; reduction in BMI signals ([3]; SCID mice, KT21, oral gavage 30 mg/kg/day, 2 weeks, P = 0.042): 37%; % inhibition of activity [4]: 9%; % inhibition of activity [6]: 26%
2 | 78 | Cc1nc(Nc2[nH]nc3c2CN(C(=O)N[C@H](CN(C)C)c2ccccc2)C3(C)C)c2sccc2n1 [PF3758309, reference compound] | dramatically inhibited | induction | – | – | substantial increase | 7 | 100 | 100 | 77 | 73 | 18 | 100 | 0 | total and phospho-protein levels of β-catenin [20]: only reduction on phosphorylation status; activity of Akt ([1]; either cell type): did not influence; Erk activity [1, 21]: decrease

SMILES | % inhibition of activity [5] [%] | % inhibition of activity [7] [%] | phosphorylation of Pak and Mek1 (at Ser298) [1, 21] | basal level (expression) of β-catenin [2] | % inhibition of activity [8] [%] | % inhibition of activity [9] [%] | number of apoptotic cells [10] | % inhibition of activity [12] [%] | % inhibition of activity [13] [%] | % inhibition of activity [14] [%] | % inhibition of activity [15] [%] | % inhibition of activity [16] [%] | % inhibition of activity [17] [%] | % inhibition of activity [18] [%] | % inhibition of activity [19] [%] | further results
CCn1c(=O)c(-c2ccc(-c3noc(C)n3)cc2Cl)cc2cnc(Nc3ccc(C4CCN(C)CC4)cc3)nc21 [Frax716] | 77 | 92 | dramatically inhibited | did not impact | 0 | 91 | substantial increase | 13 | 13 | 29 | 82 | 92 | 3 | 95 | 9 | IC50 [11]: 2 nM; phosphorylation of β-catenin [2]: diminished; loss of body weight compared with control littermates ([3]; oral gavage 20 mg/kg/day): > 10%; reduction on bioluminescence ([3]; SCID mice, KT21, oral gavage 20 mg/kg/day, 2 weeks, P = 0.028): 60%
